Experimental data reported in BigSolDB 2.1.

c1ccc2cc3ccccc3cc2c1
Conditions	solubility (mole fraction)
in DMAc, 293.15 K	0.0083
in DMAc, 298.85 K	0.0113
in DMAc, 303.85 K	0.0142
in DMAc, 308.75 K	0.0159
in DMAc, 313.95 K	0.0185
in DMAc, 319.75 K	0.0215
in DMAc, 324.25 K	0.025
in DMAc, 328.05 K	0.0269
in DMAc, 332.2 K	0.0301
in DMAc, 333.15 K	0.029
in DMAc, 339.35 K	0.0338
in DMAc, 344.95 K	0.0393
in DMAc, 348.45 K	0.0432
in DMAc, 350.3 K	0.0502
in DMAc, 354.55 K	0.0485
in DMAc, 359.25 K	0.0564
in DMF, 293.35 K	0.0042
in DMF, 298.45 K	0.0054
in DMF, 303 K	0.0057
in DMF, 303.15 K	0.0068
in DMF, 308 K	0.0072
in DMF, 308.45 K	0.0086
in DMF, 312.8 K	0.0101
in DMF, 313.21 K	0.0114
in DMF, 313.65 K	0.0104
in DMF, 317.4 K	0.011
in DMF, 318.15 K	0.0127
in DMF, 318.85 K	0.0131
in DMF, 322.8 K	0.0139
in DMF, 323.25 K	0.015
in DMF, 326.28 K	0.0166
in DMF, 329.15 K	0.018
in DMF, 333.15 K	0.0191
in DMF, 334.55 K	0.0211
in DMF, 334.9 K	0.0221
in DMF, 339.75 K	0.0252
in DMF, 345.05 K	0.0292
in DMF, 348.29 K	0.032
in DMF, 349.85 K	0.0336
in DMF, 353.55 K	0.0384
in DMF, 358.85 K	0.0448
in DMF, 359.48 K	0.0452
in NMP, 293.45 K	0.0152
in NMP, 299.15 K	0.0186
in NMP, 303.45 K	0.0217
in NMP, 308.55 K	0.0255
in NMP, 314.05 K	0.0325
in NMP, 317.84 K	0.043
in NMP, 318.15 K	0.0409
in NMP, 324.75 K	0.0455
in NMP, 331.21 K	0.0546
in NMP, 331.25 K	0.0539
in NMP, 335.25 K	0.0591
in NMP, 339.75 K	0.0653
in NMP, 344.55 K	0.0738
in NMP, 349.85 K	0.0804
in NMP, 350.45 K	0.0825
in NMP, 353.55 K	0.0884
